Measured values from PubChem BioAssay AID330 (DTP/NCI, 2004).
Values joined by “and” are separate entries in the source; they are usually repeats but may differ in a detail not shown here. Identical values can stand only once. Inconclusive results and toxic doses are left out.

Tested on: P388 leukemia ip, CD2F1 mice, survival T/C
Assay: NCI In Vivo Anticancer Drug Screen. Data for tumor model P388 Leukemia (intraperitoneal) in CD2F1 (CDF1) mice
Conditions: endpoint: median survival time, higher = longer survival
In short: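 Mice carrying the transplanted tumor received test compound or vehicle. Survival was recorded in each group, and the value is the treated-group measurement divided by that of the vehicle-treated control group.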

[1] = dose: 50.0 mg/kg/injection, schedule: Q01DX009 (ip), vehicle: saline with Tween-80
[2] = dose: 100.0 mg/kg/injection, schedule: Q01DX009 (ip), vehicle: saline with Tween-80
[3] = dose: 3.12 mg/kg/injection, schedule: Q01DX009 (ip), vehicle: Klucel (hydroxypropylcellulose) (HPC)
[4] = dose: 6.25 mg/kg/injection, schedule: Q01DX009 (ip), vehicle: Klucel (hydroxypropylcellulose) (HPC)
[5] = dose: 12.5 mg/kg/injection, schedule: Q01DX009 (ip), vehicle: Klucel (hydroxypropylcellulose) (HPC)
[6] = dose: 50.0 mg/kg/injection, schedule: Q01DX005 (ip), vehicle: saline
[7] = dose: 100.0 mg/kg/injection, schedule: Q01DX005 (ip), vehicle: saline
[8] = dose: 200.0 mg/kg/injection, schedule: Q01DX005 (ip), vehicle: saline
[9] = dose: 50.0 mg/kg/injection, schedule: Q01DX005 (ip), vehicle: Klucel (hydroxypropylcellulose) (HPC)
[10] = dose: 100.0 mg/kg/injection, schedule: Q01DX005 (ip), vehicle: Klucel (hydroxypropylcellulose) (HPC)
[11] = dose: 12.5 mg/kg/injection, schedule: Q01DX009 (ip), vehicle: saline with Tween-80
[12] = dose: 25.0 mg/kg/injection, schedule: Q01DX009 (ip), vehicle: saline with Tween-80
[13] = dose: 50.0 mg/kg/injection, schedule: Q01DX009 (ip), vehicle: Klucel (hydroxypropylcellulose) (HPC)
[14] = dose: 100.0 mg/kg/injection, schedule: Q01DX009 (ip), vehicle: Klucel (hydroxypropylcellulose) (HPC)

CC(C)=CC(=O)OC1C2C(C)=CC(O)C(O)C2(C)C2C3(O)OCC24C(CC(=O)OC14)C(C)C3O (stereo not given)
T/C (dose: 0.31 mg/kg/injection, schedule: Q01DX005 (ip), vehicle: distilled water + Tween-80): 123 % of control | T/C (dose: 0.75 mg/kg/injection, schedule: Q01DX009 (ip), vehicle: saline with Tween-80): 160 % of control | T/C (dose: 1.0 mg/kg/injection, schedule: Q01DX005 (ip), vehicle: distilled water + Tween-80): 154 % of control | T/C (dose: 2.0 mg/kg/injection, schedule: Q01DX005 (ip), vehicle: distilled water + Tween-80): 154 % of control | T/C (dose: 4.0 mg/kg/injection, schedule: Q01DX005 (ip), vehicle: distilled water + Tween-80): 163 % of control | T/C (dose: 5.0 mg/kg/injection, schedule: Q01DX005 (ip), vehicle: distilled water + Tween-80): 153 % of control | T/C (dose: 6.0 mg/kg/injection, schedule: Q01DX009 (ip), vehicle: saline with Tween-80): 109 % of control

C[C@]12CCC(=O)C=C1CC[C@H]1[C@@H]3C[C@@H](O)[C@](O)(C(=O)CO)[C@@]3(C)C[C@H](O)[C@@]12F
T/C (dose: 25.0 mg/kg/injection, schedule: Q01DX009 (ip), vehicle: saline): 109 % of control | T/C (dose: 50.0 mg/kg/injection, schedule: Q01DX009 (ip), vehicle: saline): 109 % of control | T/C (dose: 100.0 mg/kg/injection, schedule: Q01DX009 (ip), vehicle: saline): 109 % of control

CNC(=O)OCc1nc(-c2ccccc2)oc1COC(=O)NC
T/C (dose: 12.5 mg/kg/injection, schedule: Q01DX005 (ip), vehicle: distilled water + Tween-80): 96 % of control | T/C (dose: 25.0 mg/kg/injection, schedule: Q01DX005 (ip), vehicle: distilled water + Tween-80): 97 % of control | T/C (dose: 50.0 mg/kg/injection, schedule: Q01DX005 (ip), vehicle: distilled water + Tween-80): 92 % of control | T/C (dose: 100.0 mg/kg/injection, schedule: Q01DX005 (ip), vehicle: distilled water + Tween-80): 89 % of control | T/C (dose: 200.0 mg/kg/injection, schedule: Q01DX005 (ip), vehicle: distilled water + Tween-80): 89 % of control

CCOn1nnc2ccccc21
T/C [1]: 92 % of control | T/C [2]: 95 % of control | T/C (dose: 200.0 mg/kg/injection, schedule: Q01DX009 (ip), vehicle: saline with Tween-80): 92 % of control

COc1ccc(/C=N\N=C(/[O-])c2ccccc2O)cc1.COc1ccc(/C=N\N=C(/[O-])c2ccccc2O)cc1.[OH3+].[OH3+].[Zn+2]
T/C (dose: 100.0 mg/kg/injection, schedule: Q04DX002 (ip), vehicle: saline with Tween-80): 100 % of control | T/C (dose: 200.0 mg/kg/injection, schedule: Q04DX002 (ip), vehicle: saline with Tween-80): 98 % of control | T/C (dose: 400.0 mg/kg/injection, schedule: Q04DX002 (ip), vehicle: saline with Tween-80): 91 % of control

CCOC(CCC1=NC(C)(C)CC(C)O1)OCC (stereo not given)
T/C (dose: 100.0 mg/kg/injection, schedule: Q01DX001 (ip), vehicle: saline sonified): 110 % of control | T/C (dose: 200.0 mg/kg/injection, schedule: Q01DX001 (ip), vehicle: saline sonified): 100 % of control | T/C (dose: 400.0 mg/kg/injection, schedule: Q01DX001 (ip), vehicle: saline sonified): 90 % of control

CC(/C=C/C1(C)C(C)CCC(=O)C1C)=C\Cc1c(O)c(Cl)c(C)c(C=O)c1O (stereo not given)
T/C [3]: 101 % of control and 103 % of control | T/C [4]: 103 % of control and 106 % of control | T/C [5]: 106 % of control and 113 % of control

OCCN1CCN(c2c3ccccc3nc3ccccc23)CC1
T/C (dose: 25.0 mg/kg/injection, schedule: Q04DX003 (ip), vehicle: saline): 100 % of control | T/C (dose: 50.0 mg/kg/injection, schedule: Q04DX003 (ip), vehicle: saline): 100 % of control

C[N+](C)(C)CCCOC1=Nc2ccccc2O/C1=C/c1ccccc1
T/C [3]: 96 % of control | T/C [4]: 92 % of control | T/C [5]: 98 % of control and 104 % of control

O=C(C[n+]1ccccc1)NC(O)C(Cl)(Cl)Cl (stereo not given)
T/C [6]: 106 % of control | T/C [7]: 105 % of control | T/C [8]: 109 % of control

O=CC(O)C(O)C(O)COc1cc(CO)cc2c1C(=O)c1ccccc1C2=O (stereo not given)
T/C (dose: 12.5 mg/kg/injection, schedule: Q01DX005 (ip), vehicle: Klucel (hydroxypropylcellulose) (HPC)): 100 % of control | T/C (dose: 25.0 mg/kg/injection, schedule: Q01DX005 (ip), vehicle: Klucel (hydroxypropylcellulose) (HPC)): 107 % of control | T/C [9]: 106 % of control and 110 % of control | T/C [10]: 106 % of control and 107 % of control

COc1cc2oc3ccccc3c(=O)c2cc1CSc1ccccc1N
T/C [11]: 89 % of control and 96 % of control | T/C [12]: 93 % of control and 98 % of control | T/C [1]: 92 % of control and 96 % of control | T/C [2]: 87 % of control and 89 % of control

O=C(N=Nc1c(O)[nH]c2c(Cl)cc(Cl)cc12)C(=O)Nc1cccc(C(F)(F)F)c1
T/C (dose: 6.25 mg/kg/injection, schedule: Q01DX009 (ip), vehicle: saline with Tween-80): 95 % of control | T/C [11]: 93 % of control | T/C [12]: 95 % of control

CC1CCc2c(c3ccc(O)cc3oc2=O)C1 (stereo not given)
T/C [9]: 101 % of control | T/C [10]: 96 % of control | T/C (dose: 200.0 mg/kg/injection, schedule: Q01DX005 (ip), vehicle: Klucel (hydroxypropylcellulose) (HPC)): 92 % of control

CC(=O)O[C@H]1[C@H]2O[C@]23[C@@H]2CC[C@]4(O)C[C@@H](O)CC[C@]4(C)[C@H]2CC[C@]3(C)[C@H]1c1ccc(=O)oc1
T/C [5]: 114 % of control | T/C (dose: 25.0 mg/kg/injection, schedule: Q01DX009 (ip), vehicle: Klucel (hydroxypropylcellulose) (HPC)): 105 % of control | T/C [13]: 105 % of control | T/C [14]: 120 % of control

CC(C)(C#N)OC(=O)Nc1c(Cl)cccc1Cl
T/C (dose: 60.0 mg/kg/injection, schedule: Q01DX005 (ip), vehicle: saline with Tween-80): 100 % of control | T/C (dose: 120.0 mg/kg/injection, schedule: Q01DX005 (ip), vehicle: saline with Tween-80): 98 % of control | T/C (dose: 240.0 mg/kg/injection, schedule: Q01DX005 (ip), vehicle: saline with Tween-80): 94 % of control

CC[C@@H]1O[C@@H]([C@@H]2CC[C@](O)([C@]3(C)CC[C@@H]([C@@H](C)[C@@]4(O)CC[C@H](C)[C@@H](C[C@@]5(O)O[C@@H]([C@@H](C)[C@H](O)C[C@H]6CC[C@H](C)[C@@H]([C@@H](C)C(=O)O)O6)CC[C@@H]5C)O4)O3)O2)CC[C@@]1(C)O
T/C (dose: 0.12 mg/kg/injection, schedule: Q01DX009 (ip), vehicle: saline with Tween-80): 109 % of control | T/C (dose: 0.25 mg/kg/injection, schedule: Q01DX009 (ip), vehicle: saline with Tween-80): 111 % of control

BrP(Cc1ccccc1-c1ccccc1CP(Br)(c1ccccc1)(c1ccccc1)c1ccccc1)(c1ccccc1)(c1ccccc1)c1ccccc1
T/C (dose: 1.56 mg/kg/injection, schedule: Q01DX009 (ip), vehicle: saline): 103 % of control | T/C (dose: 3.12 mg/kg/injection, schedule: Q01DX009 (ip), vehicle: saline): 102 % of control | T/C (dose: 6.25 mg/kg/injection, schedule: Q01DX009 (ip), vehicle: saline): 100 % of control and 103 % of control

CCSC(=O)/C=C\C=[N+](/[O-])OC
T/C (dose: 12.5 mg/kg/injection, schedule: Q01DX009 (ip), vehicle: other): 103 % of control | T/C (dose: 25.0 mg/kg/injection, schedule: Q01DX009 (ip), vehicle: other): 104 % of control | T/C (dose: 50.0 mg/kg/injection, schedule: Q01DX009 (ip), vehicle: other): 112 % of control and 94 % of control | T/C (dose: 100.0 mg/kg/injection, schedule: Q01DX009 (ip), vehicle: other): 97 % of control

O=C(O)CCSSCCCS(=O)O
T/C [6]: 109 % of control | T/C [7]: 114 % of control | T/C [8]: 124 % of control

CCCCCCOC(=O)c1ccc(Br)cc1
T/C [13]: 104 % of control | T/C [14]: 101 % of control | T/C (dose: 200.0 mg/kg/injection, schedule: Q01DX009 (ip), vehicle: Klucel (hydroxypropylcellulose) (HPC)): 93 % of control

O=[N+]([O-])c1ccc(N2CCOCC2)c2c1no[n+]2[O-]
T/C (dose: 8.0 mg/kg/injection, schedule: Q04DX003 (ip), vehicle: suspension in saline): 98 % of control | T/C (dose: 16.0 mg/kg/injection, schedule: Q04DX003 (ip), vehicle: suspension in saline): 105 % of control | T/C (dose: 32.0 mg/kg/injection, schedule: Q04DX003 (ip), vehicle: suspension in saline): 99 % of control | T/C (dose: 64.0 mg/kg/injection, schedule: Q04DX003 (ip), vehicle: suspension in saline): 123 % of control
